Source: ChEMBL document CHEMBL6096689, “Structure-Guided Development of ClpP Agonists with Potent Therapeutic Activities against Staphylococcus aureus Infection” (J Med Chem, 2025)
Converted amounts (≈) assume the structure as drawn. The source made the active and inactive calls. The rule behind the calls is not given here.

Legend:
Staphylococcus aureus [1] = assay: microbe, parasite or virus in culture; format: functional; details: NRS-1, time 18 hrs
Description: Antibacterial activity against methicillin-resistant Staphylococcus aureus NRS-1 assessed as inhibition of visible growth of bacteria incubated for 18 hrs by absorbance based analysis

[2] = biological target: T1, ATP-dependent Clp protease proteolytic subunit, mitochondrial (Homo sapiens, UniProt Q16740); assay: Induction of thermal stabilization of human ClpP extracted from Escherichia coli Rosetta (DE3) cells assessed as change in melting temperature at 10 uM incubated for 10 mins by DSF analysis
T1 sequence (Q16740 whole entry): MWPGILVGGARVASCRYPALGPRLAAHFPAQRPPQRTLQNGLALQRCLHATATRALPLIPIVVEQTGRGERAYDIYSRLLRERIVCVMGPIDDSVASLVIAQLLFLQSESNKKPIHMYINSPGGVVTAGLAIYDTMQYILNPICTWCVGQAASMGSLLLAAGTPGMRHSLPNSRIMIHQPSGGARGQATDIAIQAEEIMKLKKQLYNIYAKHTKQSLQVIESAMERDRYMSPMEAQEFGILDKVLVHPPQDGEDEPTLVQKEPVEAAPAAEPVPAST

[3] = biological target: T2, ATP-dependent Clp protease proteolytic subunit (Staphylococcus aureus (strain NCTC 8325), UniProt Q2G036); assay: (§1) Agonist activity at Staphylococcus aureus ClpP extracted from Escherichia coli BL21 (DE3) cells using FITC-casein as substrate assessed as substrate hydrolysis preincubated for 60 mins followed by substrate addition and measured after 1 hrs by fluorescence based analysis
T2 sequence (Q2G036 whole entry): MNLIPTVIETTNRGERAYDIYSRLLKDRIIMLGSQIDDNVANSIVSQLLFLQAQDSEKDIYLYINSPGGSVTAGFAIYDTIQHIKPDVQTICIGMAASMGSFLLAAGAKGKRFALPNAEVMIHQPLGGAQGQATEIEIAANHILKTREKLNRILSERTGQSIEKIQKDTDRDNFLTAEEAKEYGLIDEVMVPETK

Staphylococcus aureus [4] = assay: Antibacterial activity against Staphylococcus aureus USA300 infected in female ICR mouse peritonitis model assessed as increase in mouse survival at 25 to 100 mg/kg, ip pre-infected for 1 hrs followed by compound addition and measured after 5 days relative to control; format: functional; details: dose 25-100 mg/kg, time 5 day
Staphylococcus aureus [5] = assay: Antibacterial activity against Staphylococcus aureus 8325-4 harboring ClpP mutant assessed as inhibition of visible growth of bacteria incubated for 18 hrs by absorbance based assay; format: functional
Staphylococcus aureus [6] = assay: microbe, parasite or virus in culture; format: functional; details: USA300, time 18 hrs
Description: Antibacterial activity against methicillin-resistant Staphylococcus aureus USA300 assessed as inhibition of visible growth of bacteria incubated for 18 hrs by absorbance based analysis

Staphylococcus aureus [7] = assay: microbe, parasite or virus in culture; format: functional; details: time 18 hrs
Description: Antibacterial activity against multidrug-resistant Staphylococcus aureus clinical isolate XJ025 assessed as inhibition of visible growth of bacteria incubated for 18 hrs by absorbance based analysis

[8] = biological target: T1, ATP-dependent Clp protease proteolytic subunit, mitochondrial; assay: Agonist activity at human ClpP extracted from Escherichia coli Rosetta (DE3) cells using alpha-casein as substrate assessed as substrate hydrolysis preincubated for 15 mins followed by substrate addition and measured after 2 hrs by SDS-PAGE analysis
Staphylococcus aureus [9] = assay: microbe, parasite or virus in culture; format: functional; details: Newman, time 18 hrs
Description: Antibacterial activity against Staphylococcus aureus Newman assessed as inhibition of visible growth of bacteria incubated for 18 hrs by absorbance based analysis

Staphylococcus aureus [10] = assay: Antibacterial activity against Staphylococcus aureus USA300 infected in female ICR mouse peritonitis model assessed as reduction in bacterial load in spleen at 25 to 100 mg/kg, ip pre-infected for 1 hrs followed by compound addition and measured after 5 days relative to control; format: functional; details: dose 25-100 mg/kg, time 5 day
[11] = Agonist activity at Lactobacillus acidophilus ClpP using alpha-casein as substrate assessed as substrate hydrolysis preincubated for 15 mins followed by substrate addition and measured after 2 hrs by SDS-PAGE analysis
[12] = Therapeutic index, ratio of IC50 for human ARH-77 cells to MIC for Staphylococcus aureus Newman; format: toxicity, cell-based; details: read-out: TI
Staphylococcus aureus [13] = assay: Antibacterial activity against Staphylococcus aureus USA300 infected in Zebrafish infection model assessed as increase in zebrafish survival at 5 mg/kg pre-infected for 1 hrs followed by compound addition and measured after 5 days; format: functional, organism-based; details: time 5.0 day
Staphylococcus aureus [14] = assay: microbe, parasite or virus in culture; format: functional; details: NRS-108, time 18 hrs
Description: Antibacterial activity against methicillin-resistant Staphylococcus aureus NRS-108 assessed as inhibition of visible growth of bacteria incubated for 18 hrs by absorbance based analysis

Staphylococcus aureus [15] = assay: microbe, parasite or virus in culture; format: functional; details: time 18 hrs; remark: listed apart in the source
Description: Antibacterial activity against multidrug-resistant Staphylococcus aureus clinical isolate XJ049 assessed as inhibition of visible growth of bacteria incubated for 18 hrs by absorbance based analysis

[16] = Toxicity in female ICR mouse model of peritonitis infected with Staphylococcus aureus USA300 assessed as effect on body weight at 50 mg/kg, ip pre-infected for 1 hrs followed by compound addition and measured after 5 days; format: organism-based; details: in vivo, 120 h, time 5 day
Staphylococcus aureus [17] = assay: microbe, parasite or virus in culture; format: functional; details: NRS-70, time 18 hrs
Description: Antibacterial activity against methicillin-resistant Staphylococcus aureus NRS-70 assessed as inhibition of visible growth of bacteria incubated for 18 hrs by absorbance based analysis

[18] = biological target: T3, ATP-dependent Clp protease proteolytic subunit (Staphylococcus aureus (strain NCTC 8325)) (UniProt Q2G036); assay: Agonist activity at Staphylococcus aureus ClpP extracted from Escherichia coli BL21 (DE3) cells assessed as induction of ClpP-mediated staphylococcus aureus FtsZ degradation preincubated for 15 mins followed by FtsZ addition by SDS-PAGE analysis; details: filed as agonist, time <= 105.0 min
T3 sequence (whole entry): T2 sequence (Q2G036 whole entry)

Staphylococcus aureus [19] = assay: Antibacterial activity against Staphylococcus aureus USA300 infected in Zebrafish infection model assessed as increase in zebrafish survival at 0.5 mg/kg pre-infected for 1 hrs followed by compound addition and measured after 5 days; format: functional, organism-based; details: time 5.0 day
Staphylococcus aureus [20] = assay: Antibacterial activity against Staphylococcus aureus USA300 infected in female ICR mouse peritonitis model assessed as reduction in bacterial load in kidney at 25 to 100 mg/kg, ip pre-infected for 1 hrs followed by compound addition and measured after 5 days relative to control; format: functional; details: dose 25-100 mg/kg, time 5 day
Staphylococcus aureus [21] = assay: microbe, parasite or virus in culture; format: functional; details: time 18 hrs; remark: listed apart in the source
Description: Antibacterial activity against multidrug-resistant Staphylococcus aureus clinical isolate XJ051 assessed as inhibition of visible growth of bacteria incubated for 18 hrs by absorbance based analysis

[22] = biological target: T4, Cell division protein FtsZ (Staphylococcus aureus) (UniProt P0A031); assay: Induction of FtsZ degradation in Staphylococcus aureus 8325-4 incubated for 3 hrs by Western blot analysis; details: dose 1.25-10 µM
T4 sequence (whole entry): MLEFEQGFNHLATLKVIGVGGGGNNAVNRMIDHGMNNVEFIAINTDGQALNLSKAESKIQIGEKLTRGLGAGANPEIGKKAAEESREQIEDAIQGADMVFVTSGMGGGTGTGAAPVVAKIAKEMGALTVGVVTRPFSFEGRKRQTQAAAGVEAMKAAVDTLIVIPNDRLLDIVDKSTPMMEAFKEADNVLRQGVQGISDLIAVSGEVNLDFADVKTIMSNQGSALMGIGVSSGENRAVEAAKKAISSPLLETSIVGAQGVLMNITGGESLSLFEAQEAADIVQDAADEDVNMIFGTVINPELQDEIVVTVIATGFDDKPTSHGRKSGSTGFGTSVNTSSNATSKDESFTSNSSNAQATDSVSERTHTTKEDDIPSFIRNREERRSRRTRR

[23] = biological target: T1, ATP-dependent Clp protease proteolytic subunit, mitochondrial; assay: Induction of thermal stabilization of CLpP in HEK293T/17 at 10 times of MIC preincubated for 2 hrs followed by compound washout and incubated under 57.3 to 74.5 degreeC for 3 mins by CETSA; format: cell-based
Staphylococcus aureus [24] = assay: Antibacterial activity against Staphylococcus aureus USA300 infected in female ICR mouse peritonitis model assessed as reduction in bacterial load in liver at 25 to 100 mg/kg, ip pre-infected for 1 hrs followed by compound addition and measured after 5 days relative to control; format: functional; details: dose 25-100 mg/kg, time 5 day
[25] = biological target: T3, ATP-dependent Clp protease proteolytic subunit (Staphylococcus aureus (strain NCTC 8325)); assay: Induction of thermal stabilization of CLpP in Staphylococcus aureus Newman at 10 times of MIC preincubated for 2 hrs followed by compound washout and incubated under 57.3 to 74.5 degreeC for 3 mins by CETSA
[26] = Toxicity in female ICR mouse model of peritonitis infected with oxacillin-resistant Staphylococcus aureus clinical isolate XJ049 assessed as effect on body weight at 50 mg/kg, ip pre-infected for 1 hrs followed by compound addition and measured after 5 days; format: organism-based; details: in vivo, 120 h, time 5 day
[27] = biological target: T3, ATP-dependent Clp protease proteolytic subunit (Staphylococcus aureus (strain NCTC 8325)); assay: as §1, with “Potency index, ratio of ONC212 EC50 to test compound EC50 for agonist” for “Agonist”; details: time 120.0 min

CC[C@H](C)[C@H]1C(=O)N(Cc2ccc(OC)c3ccccc23)C[C@@H]2N(C(=O)NCCCC(F)(F)F)CCC(=O)N12
MIC (Staphylococcus aureus [1]): 0.13 µg/mL (≈ 0.237 µM) | ΔTm [2]: 18 °C | EC50 [3]: 330 nM | Activity (Staphylococcus aureus [4]): 89% | MIC (Staphylococcus aureus [5]): > 128 µg/mL | MIC (Staphylococcus aureus [6]): 0.06 µg/mL (≈ 0.109 µM) | MIC (Staphylococcus aureus [7]): 0.13 µg/mL (≈ 0.237 µM) | EC50 [8]: 3.6 µM | MIC (Staphylococcus aureus [9]): 0.063 µg/mL (≈ 0.115 µM) | Activity (Staphylococcus aureus [10]): 2 log10CFU/g | EC50 [11]: > 100 µM | selectivity ratio [12]: 206 | Activity (Staphylococcus aureus [13]): Active; Comparable To 25 Mg/Kg Of (R)-Zg197 | MIC (Staphylococcus aureus [14]): 0.06 µg/mL (≈ 0.109 µM) | MIC (Staphylococcus aureus [15]): 0.13 µg/mL (≈ 0.237 µM) | Activity [16]: Non-toxic | MIC (Staphylococcus aureus [17]): 0.06 µg/mL (≈ 0.109 µM) | Activity [18]: Time-dependent-effect | Activity (Staphylococcus aureus [19]): Active; Significant Improvement Observed Compared To 0.5 Mg/Kg Of Vancomycin | Activity (Staphylococcus aureus [20]): 2 log10CFU/g | MIC (Staphylococcus aureus [21]): 0.03 µg/mL (≈ 0.0547 µM) | Activity [22]: Dose-dependent-effect | Activity [23]: Active; Minimal Effect On Thermal Stability Observed | Activity (Staphylococcus aureus [24]): 2 log10CFU/g | Activity [25]: Active | Activity [26]: Non-toxic | Ratio EC50 [27]: 2.2
